Values joined by “and” are separate entries in the source; they are usually repeats but may differ in a detail not shown here. Equal values may be shown once. Read-outs that look alike come from different tables or passages of the source.
Assay: Phase 2 toxicokinetics of brincidofovir and cidofovir in plasma
Type: in vivo, Sprague-Dawley CD rats
Design: Imputed Concentration, Mean: unit: ng/mL
Details: for cidofovir Concentration (C): individual animals; for concentration at 1 h / concentration at 2 h / concentration at 8 h / concentration at 24 h / concentration at 0 h: Sprague-Dawley CD, rat, intravenous, 1 mg/kg; for concentration at 1 h / concentration at 2 h / concentration at 8 h / concentration at 24 h / concentration at 0 h / Imputed Concentration, individual animals / Imputed Concentration, Mean: plasma, BLQ imputed as zero
Protocol: Plasma samples (108) were collected 2 hours following the initiation of dosing on Day 1 and Day 7 (Group 1), or at 1, 2, 8, and 24 hours following the initiation of dosing on Day 1, and prior to administration and at 2, 8, and 24 hours following the initiation of dosing on Day 7 (Groups 2 and 3), and analyzed to determine the concentrations of brincidofovir and the metabolite, cidofovir), by LC/MS/MS.
Approximately 0.4 mL of whole blood was obtained via the tail vein from each animal at each time point. Animals were not fasted prior to blood collection. Blood was collected into tubes containing K2EDTA anticoagulant and placed on wet ice in an upright position, per facility SOP prior to processing. Plasma was separated by centrifugation (10 minutes at approximately 2000 g, at approximately 2-8° C.). Approximately 0.10 mL of plasma was transferred into a single cryotube appropriately labeled with study number, animal number, time point, date of sampling and sample type. Remaining plasma was transferred into a second cryotube and retained as a backup sample. Plasma frozen at approximately −80±10° C. within approximately 2 hours after collection of each blood sample until analysis. Animals were euthanized (CO2 inhalation) after the final blood collection.
In general, TK parameters were estimated using mean plasma concentrations of brincidofovir and cidofovir derived from the composite blood sampling design using Phoenix WinNonLin (V 6.3).
A composite blood sampling design was used such that each rat was sampled twice per sampling day. Blood was collected via tail vein from unanesthetized animals into tubes containing anticoagulant and placed on wet ice in an upright position. Animals were not fasted prior to blood collection. Plasma was separated by centrifugation (for 10 minutes at approximately 2000 g, at approximately 2-8° C.), and transferred into individually labeled cryotubes. All cryotubes containing the collected plasma samples were appropriately labeled as to study number, animal number, time point, date of sampling and sample type. All plasma samples were obtained and frozen at approximately −80° C. (±10° C.) within approximately 2 hours after collection of each blood sample until analysis.
Rat plasma bioanalysis was conducted by Pyxant Laboratories. Plasma samples were analyzed for concentrations of brincidofovir and cidofovir using a method based upon protein precipitation extraction followed by LC-MS/MS analysis; calibration ranges for brincidofovir and cidofovir were 1.00-1500 ng/mL and 5.00-750 ng/mL, respectively, (Pyxant study number 3025) for a 50 μL aliquot of rat plasma. Sample analysis for ISR was not performed as part of this non-GLP study.
For the generation of Mean Profiles, all sample concentrations that were below the limit of quantitation (BLQ) were set to 0.
All pharmacokinetic parameter estimates were completed using a Non-Compartmental Model (Model 200-202 for IV infusion administration). The AUClast and AUCinf were calculated using the linear up log down trapezoidal rule.

[1] = brincidofovir 1 mg/kg 2-h IV infusion, female rats, Day 7, 0 h
[2] = brincidofovir 1 mg/kg 2-h IV infusion, female rats, Day 7, 2 h
[3] = brincidofovir 1 mg/kg 2-h IV infusion, female rats, Day 7, 8 h
[4] = brincidofovir 1 mg/kg 2-h IV infusion, female rats, Day 7, 24 h
[5] = brincidofovir 1 mg/kg 2-h IV infusion, male rats, Day 7, 2 h
[6] = brincidofovir 1 mg/kg 2-h IV infusion, male rats, Day 7, 8 h
[7] = brincidofovir 1 mg/kg 2-h IV infusion, male rats, Day 7, 24 h
[8] = brincidofovir 15 mg/kg 2-h IV infusion, female rats, Day 1, 1 h
[9] = brincidofovir 15 mg/kg 2-h IV infusion, female rats, Day 1, 2 h
[10] = brincidofovir 15 mg/kg 2-h IV infusion, female rats, Day 1, 8 h
[11] = brincidofovir 15 mg/kg 2-h IV infusion, female rats, Day 1, 24 h
[12] = brincidofovir 15 mg/kg 2-h IV infusion, female rats, Day 7, 0 h
[13] = brincidofovir 15 mg/kg 2-h IV infusion, female rats, Day 7, 2 h
[14] = brincidofovir 15 mg/kg 2-h IV infusion, male rats, Day 1, 1 h
[15] = brincidofovir 15 mg/kg 2-h IV infusion, male rats, Day 1, 2 h
[16] = brincidofovir 15 mg/kg 2-h IV infusion, male rats, Day 1, 8 h
[17] = brincidofovir 15 mg/kg 2-h IV infusion, male rats, Day 1, 24 h
[18] = brincidofovir 15 mg/kg 2-h IV infusion, male rats, Day 7, 0 h
[19] = brincidofovir 15 mg/kg 2-h IV infusion, male rats, Day 7, 2 h

SMILES: Nc1ccn(C[C@@H](CO)OCP(=O)(O)O)c(=O)n1 [Cidofovir]
- cidofovir Concentration (C) (brincidofovir 1 mg/kg, Female, Day 1, 1 h): BLQ
- cidofovir Concentration (C) (brincidofovir 1 mg/kg, Female, Day 1, 8 h): BLQ
- cidofovir Concentration (C) (brincidofovir 1 mg/kg, Female, Day 1, 24 h): BLQ
- cidofovir Concentration (C) (brincidofovir 1 mg/kg, Female, Day 7, 0 h): BLQ
- cidofovir Concentration (C) (brincidofovir 1 mg/kg, Female, Day 7, 24 h): BLQ
- cidofovir Concentration (C) (brincidofovir 1 mg/kg, Male, Day 1, 1 h): BLQ
- cidofovir Concentration (C) (brincidofovir 1 mg/kg, Male, Day 1, 2 h): BLQ
- cidofovir Concentration (C) (brincidofovir 1 mg/kg, Male, Day 1, 8 h): BLQ
- cidofovir Concentration (C) (brincidofovir 1 mg/kg, Male, Day 1, 24 h): BLQ
- cidofovir Concentration (C) (brincidofovir 1 mg/kg, Male, Day 7, 0 h): BLQ
- cidofovir Concentration (C) (brincidofovir 1 mg/kg, Male, Day 7, 2 h): BLQ
- cidofovir Concentration (C) (brincidofovir 1 mg/kg, Male, Day 7, 24 h): BLQ
- cidofovir Concentration (C) (brincidofovir 15 mg/kg, Female, Day 7, 0 h): BLQ
- cidofovir Concentration (C) (brincidofovir 15 mg/kg, Male, Day 1, 1 h): BLQ
- cidofovir Concentration (C) (brincidofovir 15 mg/kg, Male, Day 7, 0 h): BLQ
- concentration at 1 h (female, brincidofovir 1 mg/kg 2-h IV infusion, female rats, Day 1, 1 h, read-out: Imputed Concentration, Mean): 0 ng/mL
- concentration at 1 h (female, brincidofovir 1 mg/kg 2-h IV infusion, female rats, Day 1, 1 h, read-out: Imputed Concentration, individual animals): 0 ng/mL
- concentration at 2 h (female, brincidofovir 1 mg/kg 2-h IV infusion, female rats, Day 1, 2 h, read-out: Imputed Concentration, Mean): 9.35 ng/mL
- concentration at 2 h (female, brincidofovir 1 mg/kg 2-h IV infusion, female rats, Day 1, 2 h, read-out: Imputed Concentration, individual animals): 9.62 ng/mL
- concentration at 8 h (female, brincidofovir 1 mg/kg 2-h IV infusion, female rats, Day 1, 8 h, read-out: Imputed Concentration, Mean): 4.24 ng/mL
- concentration at 24 h (female, brincidofovir 1 mg/kg 2-h IV infusion, female rats, Day 1, 24 h, read-out: Imputed Concentration, Mean): 0 ng/mL
- concentration at 24 h (female, brincidofovir 1 mg/kg 2-h IV infusion, female rats, Day 1, 24 h, read-out: Imputed Concentration, individual animals): 0 ng/mL
- concentration at 0 h (female, brincidofovir 1 mg/kg 2-h IV infusion, female rats, Day 7, 0 h, read-out: Imputed Concentration, individual animals): 0 ng/mL
- concentration at 1 h (male, brincidofovir 1 mg/kg 2-h IV infusion, male rats, Day 1, 1 h, read-out: Imputed Concentration, Mean): 0 ng/mL
- concentration at 1 h (male, brincidofovir 1 mg/kg 2-h IV infusion, male rats, Day 1, 1 h, read-out: Imputed Concentration, individual animals): 0 ng/mL
- concentration at 2 h (male, brincidofovir 1 mg/kg 2-h IV infusion, male rats, Day 1, 2 h, read-out: Imputed Concentration, Mean): 0 ng/mL
- concentration at 2 h (male, brincidofovir 1 mg/kg 2-h IV infusion, male rats, Day 1, 2 h, read-out: Imputed Concentration, individual animals): 0 ng/mL
- concentration at 8 h (male, brincidofovir 1 mg/kg 2-h IV infusion, male rats, Day 1, 8 h, read-out: Imputed Concentration, Mean): 1.95 ng/mL
- concentration at 24 h (male, brincidofovir 1 mg/kg 2-h IV infusion, male rats, Day 1, 24 h, read-out: Imputed Concentration, Mean): 0 ng/mL
- concentration at 24 h (male, brincidofovir 1 mg/kg 2-h IV infusion, male rats, Day 1, 24 h, read-out: Imputed Concentration, individual animals): 0 ng/mL
- concentration at 0 h (male, brincidofovir 1 mg/kg 2-h IV infusion, male rats, Day 7, 0 h, read-out: Imputed Concentration, Mean): 0 ng/mL
- concentration at 0 h (male, brincidofovir 1 mg/kg 2-h IV infusion, male rats, Day 7, 0 h, read-out: Imputed Concentration, individual animals): 0 ng/mL
- Imputed Concentration, individual animals (brincidofovir 1 mg/kg 2-h IV infusion, female rats, Day 1, 1 h): 0.00 ng/mL
- Imputed Concentration, individual animals (brincidofovir 1 mg/kg 2-h IV infusion, female rats, Day 1, 2 h): 6.22 ng/mL and 12.2 ng/mL
- Imputed Concentration, individual animals (brincidofovir 1 mg/kg 2-h IV infusion, female rats, Day 1, 8 h): 7.12 ng/mL and 5.60 ng/mL and 0.00 ng/mL
- Imputed Concentration, individual animals (brincidofovir 1 mg/kg 2-h IV infusion, female rats, Day 1, 24 h): 0.00 ng/mL
- Imputed Concentration, Mean [1]: 0.00 ng/mL
- Imputed Concentration, individual animals [1]: 0.00 ng/mL
- Imputed Concentration, Mean [2]: 15.0 ng/mL
- Imputed Concentration, individual animals [2]: 13.5 ng/mL and 13.8 ng/mL and 17.6 ng/mL
- Imputed Concentration, Mean [3]: 7.57 ng/mL
- Imputed Concentration, individual animals [3]: 9.51 ng/mL and 7.84 ng/mL and 5.36 ng/mL
- Imputed Concentration, Mean [4]: 0.00 ng/mL
- Imputed Concentration, individual animals [4]: 0.00 ng/mL
- Imputed Concentration, individual animals (brincidofovir 1 mg/kg 2-h IV infusion, male rats, Day 1, 1 h): 0.00 ng/mL
- Imputed Concentration, individual animals (brincidofovir 1 mg/kg 2-h IV infusion, male rats, Day 1, 2 h): 0.00 ng/mL
- Imputed Concentration, individual animals (brincidofovir 1 mg/kg 2-h IV infusion, male rats, Day 1, 8 h): 5.85 ng/mL and 0.00 ng/mL (2×)
- Imputed Concentration, individual animals (brincidofovir 1 mg/kg 2-h IV infusion, male rats, Day 1, 24 h): 0.00 ng/mL
- Imputed Concentration, individual animals (brincidofovir 1 mg/kg 2-h IV infusion, male rats, Day 7, 0 h): 0.00 ng/mL
- Imputed Concentration, Mean [5]: 0.00 ng/mL
- Imputed Concentration, individual animals [5]: 0.00 ng/mL
- Imputed Concentration, Mean [6]: 5.73 ng/mL
- Imputed Concentration, individual animals [6]: 5.67 ng/mL and 5.45 ng/mL and 6.07 ng/mL
- Imputed Concentration, Mean [7]: 0.00 ng/mL
- Imputed Concentration, individual animals [7]: 0.00 ng/mL
- Imputed Concentration, Mean [8]: 15.1
- Imputed Concentration, individual animals [8]: 14.5 and 20.5 and 10.3
- Imputed Concentration, Mean [9]: 28.7
- Imputed Concentration, individual animals [9]: 10.9 and 41.2 and 34.1
- Imputed Concentration, Mean [10]: 38.6
- Imputed Concentration, individual animals [10]: 37.3 and 37.7 and 40.7
- Imputed Concentration, Mean [11]: 22.1
- Imputed Concentration, individual animals [11]: 24.6 and 23.2 and 18.6
- Imputed Concentration, Mean [12]: 0.00
- Imputed Concentration, individual animals [12]: 0.00
- Imputed Concentration, Mean [13]: 34.5
- Imputed Concentration, individual animals [13]: 20.2 and 49.1 and 34.2
- Imputed Concentration, individual animals (brincidofovir 15 mg/kg 2-h IV infusion, female rats, Day 7, 8 h): 36.4 and 54.2
- Imputed Concentration, Mean [14]: 5.35
- Imputed Concentration, individual animals [14]: 8.97 and 0.00 and 7.08
- Imputed Concentration, Mean [15]: 18.0
- Imputed Concentration, individual animals [15]: 25.9 and 13.1 and 15.1
- Imputed Concentration, Mean [16]: 32.8
- Imputed Concentration, individual animals [16]: 35.8 and 29.5 and 33.0
- Imputed Concentration, Mean [17]: 16.7
- Imputed Concentration, individual animals [17]: 20.5 and 14.0 and 15.5
- Imputed Concentration, Mean [18]: 0.00
- Imputed Concentration, individual animals [18]: 0.00
- Imputed Concentration, Mean [19]: 24.0
- Imputed Concentration, individual animals [19]: 38.8 and 15.0 and 18.3
- Imputed Concentration, individual animals (brincidofovir 15 mg/kg 2-h IV infusion, male rats, Day 7, 8 h): 38.4 and 31.1 and 28.8

From patent US20170368082A1, “FORMULATIONS OF BRINCIDOFOVIR” (priority 2016, published 2017)
